Key:
[1] = target: T1, Mineralocorticoid receptor (Homo sapiens, UniProt P08235); assay: Binding affinity to mineralocorticoid receptor (unknown origin) by fluorescence polarization competitive binding assay
T1 sequence (P08235 whole entry): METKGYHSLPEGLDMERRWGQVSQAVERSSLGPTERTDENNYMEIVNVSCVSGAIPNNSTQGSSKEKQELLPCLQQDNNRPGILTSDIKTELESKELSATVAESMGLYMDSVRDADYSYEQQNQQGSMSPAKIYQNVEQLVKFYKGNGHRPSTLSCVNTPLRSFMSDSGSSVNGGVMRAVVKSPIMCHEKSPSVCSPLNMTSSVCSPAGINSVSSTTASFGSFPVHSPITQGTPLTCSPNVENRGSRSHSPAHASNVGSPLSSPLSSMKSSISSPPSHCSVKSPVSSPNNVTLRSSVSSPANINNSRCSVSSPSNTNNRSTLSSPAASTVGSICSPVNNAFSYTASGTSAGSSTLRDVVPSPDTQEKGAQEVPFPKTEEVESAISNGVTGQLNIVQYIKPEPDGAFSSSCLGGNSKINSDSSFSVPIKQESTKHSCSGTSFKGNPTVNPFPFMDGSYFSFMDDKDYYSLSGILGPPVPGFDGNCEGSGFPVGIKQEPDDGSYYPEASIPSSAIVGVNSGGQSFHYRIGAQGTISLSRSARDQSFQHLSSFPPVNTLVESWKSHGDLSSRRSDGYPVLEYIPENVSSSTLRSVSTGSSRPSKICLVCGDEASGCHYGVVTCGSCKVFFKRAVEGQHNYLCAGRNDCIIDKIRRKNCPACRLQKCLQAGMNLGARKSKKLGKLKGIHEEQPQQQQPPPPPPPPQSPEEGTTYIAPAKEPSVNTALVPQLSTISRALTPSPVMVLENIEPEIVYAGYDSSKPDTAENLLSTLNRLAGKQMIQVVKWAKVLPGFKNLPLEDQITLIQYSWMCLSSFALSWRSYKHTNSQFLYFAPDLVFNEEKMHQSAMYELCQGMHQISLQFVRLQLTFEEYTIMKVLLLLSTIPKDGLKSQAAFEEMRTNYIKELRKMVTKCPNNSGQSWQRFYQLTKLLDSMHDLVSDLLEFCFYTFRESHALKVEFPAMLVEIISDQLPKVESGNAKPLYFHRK

Glucocorticoid receptor [2] = target: T2, Glucocorticoid receptor (Homo sapiens, UniProt P04150); assay: Agonist activity at glucocorticoid receptor in HFF assessed as inhibition of IL-1-induced IL-6 production after 24 hrs
T2 sequence (P04150 whole entry): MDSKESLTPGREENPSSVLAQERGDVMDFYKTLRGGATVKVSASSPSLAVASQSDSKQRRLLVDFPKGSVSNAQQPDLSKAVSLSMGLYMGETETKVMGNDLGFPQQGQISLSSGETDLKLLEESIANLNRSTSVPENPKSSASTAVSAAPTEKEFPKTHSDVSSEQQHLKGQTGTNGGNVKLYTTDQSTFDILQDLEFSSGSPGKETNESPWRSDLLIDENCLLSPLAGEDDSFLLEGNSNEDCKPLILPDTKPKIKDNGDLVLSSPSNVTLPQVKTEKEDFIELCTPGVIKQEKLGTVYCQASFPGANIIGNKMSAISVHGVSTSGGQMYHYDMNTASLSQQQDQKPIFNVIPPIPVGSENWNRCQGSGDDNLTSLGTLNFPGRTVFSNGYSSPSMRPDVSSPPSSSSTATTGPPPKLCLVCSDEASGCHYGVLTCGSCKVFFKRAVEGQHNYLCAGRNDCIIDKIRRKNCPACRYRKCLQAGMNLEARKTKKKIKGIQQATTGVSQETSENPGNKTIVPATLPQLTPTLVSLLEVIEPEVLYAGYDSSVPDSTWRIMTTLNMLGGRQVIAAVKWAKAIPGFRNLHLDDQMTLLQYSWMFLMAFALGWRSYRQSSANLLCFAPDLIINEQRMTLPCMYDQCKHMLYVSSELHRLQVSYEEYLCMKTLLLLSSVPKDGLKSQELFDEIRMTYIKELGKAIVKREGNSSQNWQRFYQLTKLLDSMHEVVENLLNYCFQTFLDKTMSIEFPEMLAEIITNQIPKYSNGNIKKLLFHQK

Glucocorticoid receptor [3] = target: T2, Glucocorticoid receptor; assay: Displacement of TAMRA-labeled dexamethasone from glucocorticoid receptor (unknown origin) by fluorescence polarization competitive binding assay
Progesterone receptor = target: T3, Progesterone receptor (Homo sapiens, UniProt P06401); assay: Displacement of TAMRA-labeled mifepristone from progesterone receptor (unknown origin) by fluorescence polarization competitive binding assay
T3 sequence (P06401 whole entry): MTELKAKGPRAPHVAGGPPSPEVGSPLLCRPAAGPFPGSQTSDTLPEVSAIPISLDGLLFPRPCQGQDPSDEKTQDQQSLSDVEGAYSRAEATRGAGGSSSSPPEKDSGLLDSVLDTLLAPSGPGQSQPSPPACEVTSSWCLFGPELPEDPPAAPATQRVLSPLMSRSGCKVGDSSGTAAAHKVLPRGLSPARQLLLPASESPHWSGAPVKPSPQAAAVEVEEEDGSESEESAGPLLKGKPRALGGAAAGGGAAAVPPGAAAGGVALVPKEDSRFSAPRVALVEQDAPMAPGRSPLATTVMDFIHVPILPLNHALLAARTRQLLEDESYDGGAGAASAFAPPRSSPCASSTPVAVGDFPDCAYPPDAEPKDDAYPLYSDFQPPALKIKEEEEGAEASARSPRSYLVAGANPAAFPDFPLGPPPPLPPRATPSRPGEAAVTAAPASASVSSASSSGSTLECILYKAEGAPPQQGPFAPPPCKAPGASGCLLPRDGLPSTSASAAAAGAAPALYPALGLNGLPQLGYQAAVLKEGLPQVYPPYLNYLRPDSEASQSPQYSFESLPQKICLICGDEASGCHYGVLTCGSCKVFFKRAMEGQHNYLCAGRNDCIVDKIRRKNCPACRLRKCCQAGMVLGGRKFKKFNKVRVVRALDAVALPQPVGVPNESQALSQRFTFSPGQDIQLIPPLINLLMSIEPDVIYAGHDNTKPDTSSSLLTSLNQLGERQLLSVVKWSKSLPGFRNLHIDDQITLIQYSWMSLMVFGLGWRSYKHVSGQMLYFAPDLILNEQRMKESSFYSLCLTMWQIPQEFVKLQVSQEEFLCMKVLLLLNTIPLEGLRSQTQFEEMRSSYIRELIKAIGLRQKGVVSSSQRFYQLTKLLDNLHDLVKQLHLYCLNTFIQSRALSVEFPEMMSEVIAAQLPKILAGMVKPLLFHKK

Cytochrome P450 3A4 = Cytochrome P450 3A4 (Homo sapiens, UniProt P08684); assay: Inhibition of CYP3A4 (unknown origin) using 7-benzyloxy-4-trifluoromethylcoumarin as substrate; format: ADME
Chain of Cytochrome P450 3A4 (P08684 whole entry): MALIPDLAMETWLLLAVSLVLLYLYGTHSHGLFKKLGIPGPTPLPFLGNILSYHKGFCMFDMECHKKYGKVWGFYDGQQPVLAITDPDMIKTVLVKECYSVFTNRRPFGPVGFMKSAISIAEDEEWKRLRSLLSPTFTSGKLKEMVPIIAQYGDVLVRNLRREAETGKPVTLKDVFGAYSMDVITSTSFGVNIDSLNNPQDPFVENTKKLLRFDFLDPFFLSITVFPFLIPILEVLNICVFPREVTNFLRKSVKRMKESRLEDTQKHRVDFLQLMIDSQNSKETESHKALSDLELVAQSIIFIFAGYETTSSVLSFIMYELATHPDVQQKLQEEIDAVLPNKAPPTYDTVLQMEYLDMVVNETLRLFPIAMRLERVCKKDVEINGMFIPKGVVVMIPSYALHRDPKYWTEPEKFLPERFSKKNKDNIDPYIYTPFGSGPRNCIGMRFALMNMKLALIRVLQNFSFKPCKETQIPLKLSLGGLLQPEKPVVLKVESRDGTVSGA

[4] = Half life in human liver microsomes; format: ADME
Homo sapiens = organism: Homo sapiens; assay: Selectivity ratio of IC50 for mineralocorticoid receptor (unknown origin) to IC50 for glucocorticoid receptor (unknown origin)
Mus musculus [5] = organism: Mus musculus; assay: Antiarthritic activity in collagen antibody-induced arthritis mouse model; format: functional
Mus musculus [6] = organism: Mus musculus; assay: Antiinflammatory activity in mouse assessed as inhibition of LPS-stimulated TNFalpha production; format: functional

SMILES | IC50 [1] [nM] | IC50 (Glucocorticoid receptor [2]) [nM] | IC50 (Glucocorticoid receptor [3]) [nM] | IC50 (Progesterone receptor) [nM] | IC50 (Cytochrome P450 3A4) [nM] | half-life [4] [min] | Ratio IC50 (Homo sapiens) | ED50 (Mus musculus [5]) [mg/kg] | ED50 (Mus musculus [6]) [mg/kg]
Cc1cc(C)c(S(=O)(=O)NC(Cc2c[nH]c3c(C#N)cccc23)C(F)(F)F)c(C)c1 (stereo not drawn) | 70 | 45 | 10 | 540 |  |  | 1 |  | 
Cc1cc(C)c(S(=O)(=O)NC(Cc2c[nH]c3cc(C#N)ccc23)C(F)(F)F)c(C)c1 (stereo not drawn) | 280 | > 10000 | 280 | 2000 |  |  | 1 |  | 
CC[C@@H](Cn1cc(C#N)c2ccccc21)NS(=O)(=O)c1c(N)cc(Cl)cc1Cl | 330 | 7 | 1 | 1500 | 5800 | 3 | 330 | 100 | 10
CC(Cc1c[nH]c2ccccc12)NS(=O)(=O)c1c(N)cc(Cl)cc1Cl (stereo not drawn) | 510 | 120 | 5 | > 2000 |  |  | 102 |  | 
Cc1cc(C)c(S(=O)(=O)NC(Cn2ccc3ncccc32)C(F)(F)F)c(C)c1 (stereo not drawn) | 220 | > 2000 | 340 | > 10000 |  |  |  |  | 
Cc1cc(C)c(S(=O)(=O)NC(Cc2c[nH]c3cc(C)ccc23)C(F)(F)F)c(C)c1 (stereo not drawn) | 140 | > 2000 | 37 | > 2000 |  |  | 1 |  | 
Cc1cc(C)c(S(=O)(=O)NC(Cn2ccc3c(C#N)cccc32)C(F)(F)F)c(C)c1 (stereo not drawn) | 100 | > 10000 | 60 | 700 |  |  |  |  | 
Cc1cc(C)c(S(=O)(=O)NC(Cc2c[nH]c3ccccc23)C(F)(F)F)c(C)c1 (stereo not drawn) | 80 | > 2000 | 15 | 3600 |  |  |  |  | 
Cc1cc(C)c(S(=O)(=O)N[C@@H](C)Cc2c[nH]c3ccccc23)c(C)c1 | 290 | > 2000 | 40 | 1400 |  |  |  |  | 
Cc1cc(C)c(S(=O)(=O)NC(COc2ccccc2)C(F)(F)F)c(C)c1 (stereo not drawn) | 340 | > 10000 | 210 | 6400 |  |  |  |  | 
Cc1cc(C)c(S(=O)(=O)NC(Cc2c[nH]c3ccc(C)cc23)C(F)(F)F)c(C)c1 (stereo not drawn) | 90 | 210 | 10 | 6000 |  |  | 1 |  | 
Cc1cc(C)c(S(=O)(=O)NC(CNc2ccccc2)C(F)(F)F)c(C)c1 (stereo not drawn) | 260 | > 10000 | 95 | 3200 |  |  |  |  | 

Further lines, with some results ahead:

IC50 [1] [nM] | IC50 (Glucocorticoid receptor [2]) [nM] | IC50 (Glucocorticoid receptor [3]) [nM] | IC50 (Progesterone receptor) [nM] | IC50 (Cytochrome P450 3A4) [nM] | half-life [4] [min] | Ratio IC50 (Homo sapiens) | SMILES | ED50 (Mus musculus [5]) [mg/kg] | ED50 (Mus musculus [6]) [mg/kg]
120 | > 10000 | 25 | 2400 |  |  |  | Cc1cc(C)c(S(=O)(=O)NC(Cn2ccc3ccccc32)C(F)(F)F)c(C)c1 (stereo not drawn) |  | 
510 | > 2000 | 2 | > 10000 | 570 | 3 |  | CC[C@@H](Cn1ccc2ccccc21)NS(=O)(=O)c1c(N)cc(Cl)cc1Cl |  | 
80 | > 2000 | 35 | 3500 |  |  |  | O=S(=O)(NC(Cc1c[nH]c2ccccc12)C(F)(F)F)c1c(Cl)cc(Cl)cc1Cl (stereo not drawn) |  | 
280 | > 10000 | 20 | 2000 |  |  |  | Cc1cc(C)c(S(=O)(=O)NC(CSc2ccccc2)C(F)(F)F)c(C)c1 (stereo not drawn) |  | 
270 | 56 | 10 | > 2000 |  |  |  | Nc1cc(Cl)cc(Cl)c1S(=O)(=O)NC(Cc1c[nH]c2ccccc12)C(F)(F)F (stereo not drawn) |  | 
260 | 10 | 2 | 5000 | 940 | 2 |  | CC[C@@H](Cn1cc(C)c2ccccc21)NS(=O)(=O)c1c(N)cc(Cl)cc1Cl |  | 
110 | 15 | 5 | 750 |  |  | 22 | Cc1cc(C)c(S(=O)(=O)NC(Cc2c[nH]c3c(C#N)cc(C)cc23)C(F)(F)F)c(C)c1 (stereo not drawn) |  | 
210 | > 10000 | 320 | > 10000 |  |  | 1 | Cc1cc(C)c(S(=O)(=O)NC(Cc2c[nH]c3ccc(C#N)cc23)C(F)(F)F)c(C)c1 (stereo not drawn) |  | 
80 | > 2000 | 18 | > 2000 |  |  | 1 | Cc1cc(C)c(S(=O)(=O)NC(Cc2c[nH]c3cccc(C)c23)C(F)(F)F)c(C)c1 (stereo not drawn) |  | 
90 | > 10000 | 20 | 5900 |  |  | 1 | Cc1cc(C)c(S(=O)(=O)NC(Cc2c[nH]c3c(C)cccc23)C(F)(F)F)c(C)c1 (stereo not drawn) |  | 
170 |  | > 10000 | > 10000 |  |  |  | Cc1cc(C)c(S(=O)(=O)NC(Cc2c[nH]c3cccc(C#N)c23)C(F)(F)F)c(C)c1 (stereo not drawn) |  | 
65 | > 2000 | 15 | 530 |  |  |  | Cc1cc(C)c(S(=O)(=O)NC(Cn2cc(C#N)c3ccccc32)C(F)(F)F)c(C)c1 (stereo not drawn) |  | 
 | > 2000 |  |  |  |  |  | CC(Cc1c[nH]c2ccccc12)NS(=O)(=O)c1c(Cl)cc(Cl)cc1Cl (stereo not drawn) |  | 
470 | > 2000 | 15 | 5300 |  |  |  | CC(C)(Cc1c[nH]c2ccccc12)NS(=O)(=O)c1c(N)cc(Cl)cc1Cl |  | 

— ChEMBL document CHEMBL3091451, “Function-regulating pharmacophores in a sulfonamide class of glucocorticoid receptor agonists” (Bioorg Med Chem Lett, 2013)
